Laboratory results taken from patent US20100159042A1, “CAPSICUM BASED MILDEW KILLING SOLUTION AND METHOD OF USE” (priority 2008, published 2010).

Legend:
[1] = system: Powdery Mildew (PM), Uncinula Necator; assay: First year grape vine spray test (Thompson Seedless grapes); format: in vivo; settings: summary of first year test
Source text: The objective of this study was to test the affect of capsicum on Powdery Mildew (PM), Uncinula Necator and Downey Mildew (DM), Plasmopara Viticola and its destruction of the grape vine, leaves, flag shoots, shoots and bunches. Grape varieties are susceptible to powdery mildew and Downey mildew, Thompson's Seedless grapes was used as a test subject.
Treatment began in the beginning of the season onto fruiting bodies (Cleistothecia) and the early stage of bud growth (3 to 5 inches). Later treatment was applied again, after about 3 weeks when there was new bud growth. When the fruits were about the size of small peas, treatment is once again applied to the bunches. Treatment was also planned to be administered if symptoms of fungal infections arose.
• Kalsec brand water soluble; Code #01-050-02-01 • MasterTaste brand oil soluble; Code 500087, Lot #059618
The grape vineyard to be treated is located at 19521 American Ave., Kerman Calif.,—Thompson Seedless grapes—NW corner. (Block 5B). Vines were sprayed with standard spray equipment (bottles). The spray was applied at approximately one foot away from the plants and vines. The spray was applied at an application rate of about ½ the usual spray application from a standard tractor rig. The budding fruit was sprayed along with the leaves and new budding growth. The spray was administered from the sides only. […]

[2] = cited from earlier work

SMILES: COc1cc(CNC(=O)CCCC/C=C/C(C)C)ccc1O [Capsaicin, N-vanillyl-8-methyl-6-(E)-noneamide]
- effect on growth of mildew on grape vines [1]: hinders or kills the growth of mildew
- solubility in alcohol ([2]; alcohol): soluble
- solubility in cold water ([2]; cold water): insoluble
- solubility in fats, oils and alcohol ([2]; fats, oils and alcohol): very soluble
- solubility in water ([2]; water): sparingly soluble
